# Test results: ChEMBL document CHEMBL5055643, “Sophoraflavanone G Resensitizes ABCG2-Overexpressing Multidrug-Resistant Non-Small-Cell Lung Cancer Cells to Chemotherapeutic Drugs” (J Nat Prod, 2021)
# Experiments:
# [1] = system: OVCAR-8; experiment: Chemo-sensitizing activity against human OVCAR-8 cells assessed as reversal fold at 5 uM measured after 72 hrs in presence of vincristine by CCK8 assay relative to control; type: functional
# [2] = system: KB-V1; experiment: Chemo-sensitizing activity against ABCB1-oveexpressing human KB-V1 cells assessed as reversal fold at 2 uM measured after 72 hrs in presence of colchicine by CCK8 assay relative to control; type: functional
# [3] = system: A549; experiment: Chemo-sensitizing activity against human A549 cells assessed as reversal fold at 1 uM measured after 72 hrs in presence of SN-38 by CCK8 assay relative to control; type: functional
# [4] = system: HEK293; experiment: Chemo-sensitizing activity against ABCG2-overexpressing human HEK293/482R cells assessed as reversal fold at 2 uM measured after 72 hrs in presence of SN-38 by CCK8 assay relative to control; type: functional
# [5] = system: NCI/ADR-RES; experiment: Chemo-sensitizing activity against ABCB1-overexpressing human NCI/ADR-RES cells assessed as reversal fold at 1 uM measured after 72 hrs in presence of paclitaxel by CCK8 assay relative to control; type: functional
# [6] = system: A549; experiment: Cytotoxicity against human A549 cells assessed as reduction in cell viability measured after 72 hrs by CCK8 assay; type: cell-based; conditions: A549, 72 h
# [7] = system: NCI/ADR-RES; experiment: Chemo-sensitizing activity against ABCB1-overexpressing human NCI/ADR-RES cells assessed as reversal fold at 5 uM measured after 72 hrs in presence of paclitaxel by CCK8 assay relative to control; type: functional
# [8] = system: KB 3-1; experiment: Chemo-sensitizing activity against human KB 3-1 cells assessed as reversal fold at 1 uM measured after 72 hrs in presence of colchicine by CCK8 assay relative to control; type: functional
# [9] = system: A549; experiment: Chemo-sensitizing activity against becatecarin-selected ABCG2-overexpressing human A549/Bec150 cells assessed as reversal fold at 1 uM measured after 72 hrs in presence of SN-38 by CCK8 assay relative to control; type: functional
# [10] = system: HEK293; experiment: Chemo-sensitizing activity against ABCG2-overexpressing human HEK293/482R cells assessed as reversal fold at 2 uM measured after 72 hrs in presence of mitoxatrone by CCK8 assay relative to control; type: functional
# [11] = system: NCI-H460; experiment: Chemo-sensitizing activity against mitoxantrone-selected ABCG2-overexpressing human NCI-H460/MX20 cells assessed as reversal fold at 5 uM measured after 72 hrs in presence of topotecan by CCK8 assay relative to control; type: functional
# [12] = system: NCI-H460; experiment: Chemo-sensitizing activity against human NCI-H460 cells assessed as reversal fold at 5 uM measured after 72 hrs in presence of SN-38 by CCK8 assay relative to control; type: functional
# [13] = system: A549; experiment: Chemo-sensitizing activity against human A549 cells assessed as reversal fold at 5 uM measured after 72 hrs in presence of mitoxantrone by CCK8 assay relative to control; type: functional
# [14] = system: HEK293; experiment: Chemo-sensitizing activity against ABCB1-overexpressing human HEK293/MDR19 cells assessed as reversal fold at 2 uM measured after 72 hrs in presence of vincristine by CCK8 assay relative to control; type: functional
# [15] = system: HEK293; experiment: Chemo-sensitizing activity against ABCB1-overexpressing human HEK293/MDR19 cells assessed as reversal fold at 5 uM measured after 72 hrs in presence of vincristine by CCK8 assay relative to control; type: functional
# [16] = system: NCI-H460; experiment: Chemo-sensitizing activity against mitoxantrone-selected ABCG2-overexpressing human NCI-H460/MX20 cells assessed as reversal fold at 1 uM measured after 72 hrs in presence of topotecan by CCK8 assay relative to control; type: functional
# [17] = system: HEK293; experiment: Chemo-sensitizing activity against ABCG2-overexpressing human HEK293/482R cells assessed as reversal fold at 1 uM measured after 72 hrs in presence of mitoxatrone by CCK8 assay relative to control; type: functional
# [18] = system: NCI-H460; experiment: Chemo-sensitizing activity against mitoxantrone-selected ABCG2-overexpressing human NCI-H460/MX20 cells assessed as reversal fold at 5 uM measured after 72 hrs in presence of SN-38 by CCK8 assay relative to control; type: functional
# [19] = system: OVCAR-8; experiment: Chemo-sensitizing activity against human OVCAR-8 cells assessed as reversal fold at 1 uM measured after 72 hrs in presence of colchicine by CCK8 assay relative to control; type: functional
# [20] = system: OVCAR-8; experiment: Chemo-sensitizing activity against human OVCAR-8 cells assessed as reversal fold at 2 uM measured after 72 hrs in presence of colchicine by CCK8 assay relative to control; type: functional
# [21] = system: NCI-H460; experiment: Chemo-sensitizing activity against human NCI-H460 cells assessed as reversal fold at 2 uM measured after 72 hrs in presence of mitoxantrone by CCK8 assay relative to control; type: functional
# [22] = system: A549; experiment: Chemo-sensitizing activity against becatecarin-selected ABCG2-overexpressing human A549/Bec150 cells assessed as reversal fold at 1 uM measured after 72 hrs in presence of mitoxantrone by CCK8 assay relative to control; type: functional
# [23] = Cytotoxicity against human A549 cells assessed as cell viability at 1 to 5 uM measured after 72 hrs by CCK8 assay; type: cell-based; conditions: dose 1-5 µM, read-out: Activity
# [24] = system: HEK293; experiment: Chemo-sensitizing activity against human HEK293 cells assessed as reversal fold at 2 uM measured after 72 hrs in presence of paclitaxel by CCK8 assay relative to control; type: functional
# [25] = system: NCI/ADR-RES; experiment: Chemo-sensitizing activity against ABCB1-overexpressing human NCI/ADR-RES cells assessed as reversal fold at 5 uM measured after 72 hrs in presence of vincristine by CCK8 assay relative to control; type: functional
# [26] = system: NCI-H460; experiment: Chemo-sensitizing activity against mitoxantrone-selected ABCG2-overexpressing human NCI-H460/MX20 cells assessed as reversal fold at 5 uM measured after 72 hrs in presence of mitoxantrone by CCK8 assay relative to control; type: functional
# [27] = system: NCI-H460; experiment: Chemo-sensitizing activity against human NCI-H460 cells assessed as reversal fold at 1 uM measured after 72 hrs in presence of SN-38 by CCK8 assay relative to control; type: functional
# [28] = system: HEK293; experiment: Cytotoxicity against human HEK293 cells assessed as reduction in cell viability measured after 72 hrs by CCK8 assay; type: cell-based; conditions: HEK293, 72 h
# [29] = system: HEK293; experiment: Chemo-sensitizing activity against human HEK293 cells assessed as reversal fold at 5 uM measured after 72 hrs in presence of paclitaxel by CCK8 assay relative to control; type: functional
# [30] = system: ABCG2; experiment: Resistance factor, ratio of IC50 for ABCG2-overexpressing human HEK293/482R cells to IC50 for human HEK293 cells; type: ADME; conditions: read-out: Ratio IC50
# [31] = system: OVCAR-8; experiment: Chemo-sensitizing activity against human OVCAR-8 cells assessed as reversal fold at 2 uM measured after 72 hrs in presence of vincristine by CCK8 assay relative to control; type: functional
# [32] = system: KB-V1; experiment: Chemo-sensitizing activity against ABCB1-oveexpressing human KB-V1 cells assessed as reversal fold at 1 uM measured after 72 hrs in presence of colchicine by CCK8 assay relative to control; type: functional
# [33] = system: OVCAR-8; experiment: Chemo-sensitizing activity against human OVCAR-8 cells assessed as reversal fold at 5 uM measured after 72 hrs in presence of colchicine by CCK8 assay relative to control; type: functional
# [34] = system: NCI-H460; experiment: Chemo-sensitizing activity against mitoxantrone-selected ABCG2-overexpressing human NCI-H460/MX20 cells assessed as reversal fold at 1 uM measured after 72 hrs in presence of SN-38 by CCK8 assay relative to control; type: functional
smiles,measurement,setting,value
C=C(C)[C@H](CC=C(C)C)Cc1c(O)cc(O)c2c1O[C@H](c1ccc(O)cc1O)CC2=O [SOPHORAFLAVANONE G],fold change (FC),[1],1.7
same,fold change (FC),[2],0.9
same,fold change (FC),[3],1
same,fold change (FC),[4],2.4
same,fold change (FC),[5],1
same,IC50,[6],26.2 µM
same,fold change (FC),[7],1.4
same,fold change (FC),[8],1
same,fold change (FC),[9],1.7
same,fold change (FC),[10],3.2
same,fold change (FC),[11],7.8
same,fold change (FC),[12],2.8
same,fold change (FC),[13],1.8
same,fold change (FC),[14],0.9
same,fold change (FC),[15],2.2
same,fold change (FC),[16],4.1
same,fold change (FC),[17],2.6
same,fold change (FC),[18],10.1
same,fold change (FC),[19],1
same,fold change (FC),[20],1
same,fold change (FC),[21],2.4
same,fold change (FC),[22],2.7
same,"viability at 72 h, up to 5 µM",[23],> 90%
same,fold change (FC),[24],1
same,fold change (FC),[25],1.1
same,fold change (FC),[26],7.6
same,fold change (FC),[27],1.3
same,IC50,[28],35.1 µM
same,fold change (FC),[29],1.2
same,selectivity ratio,[30],1.4
same,fold change (FC),[31],1
same,fold change (FC),[32],0.9
same,fold change (FC),[33],1.1
same,fold change (FC),[34],2.6
